Results: patent US7700655B2, “Antiallergic agents” (Institute of Medicinal Molecular Design, Inc., priority 2002, dated 2010)

How the values were obtained:
[1] = system: Bone marrow-derived cultured mast cells of NC/Nga mouse; assay: Proliferation inhibitory test of mast cell under stimulation by SCF and IL-3; format: cell-based; details: rmIL-3 100 U/ml + SCF 100 ng/ml, living cells by trypan blue
Protocol: Proliferation Inhibitory Test of Mast Cell Under Stimulation by SCF and IL-3
Bone marrow-derived cultured mast cells (10^5 cells/ml) of NC/Nga mouse were cultured with rmIL-3 (100 U/ml) and SCF (100 ng/ml) in the presence or absence of a test drug in α-Modified Eagle's Medium containing 10% of bovine fetal serum without phenol red, and then stained with trypan blue, and the number of living cells was counted.

[2] = system: mouse bone marrow-derived cultured mast cells (BMCMC); assay: Degranulation inhibitory test of mast cell (β-hexosaminidase release); format: cell-based; details: 1 h, anti DNP IgE / DNP-BSA 50 ng/ml stimulation, 60 minutes, read-out: Inhibitory Ration of Degranulation(%) at 10 μM Drug Concentration
Protocol: Degranulation Inhibitory Test of Mast Cell
Anti DNP IgE was added to mouse bone marrow-derived cultured mast cells (BMCMC) which were treated beforehand with anti DNP IgE for 4 days for expression of IgE receptor. The cells were cultured for 3 days, and treated for 1 hour with or without the addition of a test substance. Then, the medium was changed to α-Modified Eagle's Medium containing 10% of bovine fetal serum without phenol red. After cultivation for 60 minutes with rmIL-3 (100 U/ml) and DNP-BSA (50 ng/ml) in the presence or absence of the test substance, the concentrations of β-hexosaminidase in the culture medium and in the cells were determined, and the progress of degranulation was measured from a ratio of the amounts. The inhibitory ratio of the degranulation by the drug was calculated when degranulation in the absence of the test substance was taken as 100%, and degranulation in the presence of anti DNP-IgE only and in the absence of the test substance was taken as 0%.

[3] = system: B cells isolated from mouse spleen; assay: IgE production inhibitory test of spleen B cell (ELISA); format: cell-based; details: 0.1 μM; rmIL-4 200 U/ml + soluble mCD40 ligand 100 ng/ml, 9 days; no-drug control 45.6
Protocol: IgE Production Inhibitory Test of Spleen B Cell
B cells isolated from mouse spleen were cultured with 200 U/ml of rmIL-4 and 100 ng/ml of soluble mCD40 ligand in the presence or absence of a test drug in PRMI 1640 medium containing 10% of bovine fetal serum for 9 days, and the amount of IgE in the culture medium was measured by ELISA method.

HT-1080 cells = assay: Proliferation inhibitory test of fibrosarcoma (HT-1080) under PDGF stimulation (MTT assay); format: cell-based; details: 48 hours
Protocol: Proliferation Inhibitory Test of Fibrosarcoma (HT-1080) Under PDGF Stimulation
HT-1080 cells were cultured for 2 hours in EMEM medium containing 1% of FBS and NEAA in the presence or absence of a test substance. PDGF was added and the cells were cultured for 48 hours, and the proliferation of the cells was measured by MTT assay.

NC/Nga mouse [4] = assay: Immediate type allergy reaction inhibitory test (ear swelling test); format: in vivo; details: 15 mg/kg intraperitoneally, picryl chloride on auricle; FIG. 1
Protocol: Immediate Type Allergy Reaction Inhibitory Test (Ear Swelling Test)
To NC/Nga mouse sensitized by an intravenous administration of anti DNP-IgE, a diluent with a test compound for the drug administered group or that without a test drug for the control group was intraperitoneally administered. Two hours after the administration, picryl chloride dissolved in olive oil was applied to auricle to induce immediate allergy, and then swelling of the auricle was measured with passage of time for comparison of the drug administered group and the control group.

NC/Nga mouse [5] = assay: Dermatitis inhibitory test by atopic dermatitis model using NC/Nga mouse; format: in vivo; details: ointment containing 1% applied once a day; FIG. 2
Protocol: Dermatitis Inhibitory Test by Atopic Dermatitis Model Using NC/Nga Mouse
To the conventional NC/Nga mouse with the onset of severe dermatitis, an ointment containing 1% of a test substance for the drug treated group or a base material of the ointment for the control group was applied once a day, and clinical symptoms were recorded as scores with passage of day. Furthermore, the amounts of IgE in blood before and after the test were measured by ELISA.

Row | SMILES | inhibition at 10 µM [2] [%] | Inhibitory Ratio of Proliferation(%) (HT-1080 cells; Drug Concentration 250 nM) | Inhibitory Ratio of Proliferation(%) (HT-1080 cells; Drug Concentration 500 nM) | further results
1 | O=C(Nc1cc(C(F)(F)F)cc(C(F)(F)F)c1)c1cc(Cl)ccc1O [compound 50, N-[3,5-Bis(trifluoromethyl)phenyl]-5-chloro-2-hydroxybenzamide] | > 99 | 65.4 | 96.6 | Number of Cell ([1]; 1 μM, culture time 0 hr): 100000 mL⁻¹; Number of Cell ([1]; 1 μM, culture time 24 hr): 86000 mL⁻¹; Number of Cell ([1]; 1 μM, culture time 48 hr): 84000 mL⁻¹; Number of Cell ([1]; 1 μM, culture time 72 hr): 116000 mL⁻¹; Number of Cell ([1]; 5 μM, culture time 0 hr): 100000 mL⁻¹; Number of Cell ([1]; 5 μM, culture time 24 hr): 70000 mL⁻¹; Number of Cell ([1]; 5 μM, culture time 48 hr): 52000 mL⁻¹; Number of Cell ([1]; 5 μM, culture time 72 hr): 22000 mL⁻¹; Amount of IgE [3]: 24 ng/mL; effect against immediate type allergy (swelling of the auricle) (NC/Nga mouse [4]): inhibitory effect; effect against dermatitis with an atopic dermatitis model (clinical symptom scores) (NC/Nga mouse [5]): inhibitory effect
2 | CC(C)(C)c1ccc(O)c(C(=O)Nc2cc(C(F)(F)F)cc(C(F)(F)F)c2)c1 [compound 56, N-[3,5-Bis(trifluoromethyl)phenyl]-5-[(1,1-dimethyl)ethyl]-2-hydroxybenzamide] | 92 | 37.5 | 96.9 | –
3 | O=C(Nc1cc(C(F)(F)F)cc(C(F)(F)F)c1)c1cc(-n2cccc2)ccc1O [compound 71] | – | 57.9 | 83.1 | –
4 | O=C(Nc1cc(C(F)(F)F)ccc1C(F)(F)F)c1cc(Cl)ccc1O [compound 100, N-[2,5-bis(trifluoromethyl)phenyl]-5-chloro-2-hydroxybenzamide] | 83 | – | – | –
5 | O=C(Nc1cc(C(F)(F)F)ccc1Cl)c1cc(Cl)ccc1O [compound 113, 5-chloro-N-[2-chloro-5-(trifluoromethyl)phenyl]-2-hydroxybenzamide] | 93 | – | – | –
6 | CC(=O)Oc1ccccc1C(=O)Nc1cc(Cl)cc(Cl)c1 [compound 172, 2-acetoxy-N-(3,5-dichlorophenyl)benzamide] | – | – | – | melting point: 218 to 219 °C
7 | CC(C)(C)C(=O)c1sc(NC(=O)c2cc(Cl)ccc2O)nc1C(C)(C)C [compound 195, 5-Chloro-N-{4-[(1,1-dimethyl)ethyl]-5-[(2,2-dimethyl)propionyl]thiazol-2-yl}-2-hydroxybenzamide] | 72 | 44.7 | 81.7 | –
8 | CC(C)(C)c1nc(NC(=O)c2cc(Br)ccc2O)sc1N1CCOCC1 [compound 199, 5-Bromo-N-{4-[(1,1-dimethyl)ethyl]-5-morpholinothiazol-2-yl}-2-hydroxybenzamide] | – | 26.2 | 24.2 | –
9 | CC(C)(C)c1nc(NC(=O)c2cc(Br)ccc2O)sc1N1CCN(c2ccccc2)CC1 [compound 201, 5-Bromo-N-{4-[(1,1-dimethyl)ethyl]-5-(4-phenylpiperazin-1-yl)thiazol-2-yl}-2-hydroxybenzamide] | – | 60.3 | 76.2 | –
10 | O=C(Nc1cc(C(F)(F)F)ccc1C(F)(F)F)c1cc(Br)ccc1O [compound 552] | – | 24.0 | 19.4 | –
